The values below come from paper PMC12071365, “Discovery of Boronic Acids-Based β-Lactamase Inhibitors Through In Situ Click Chemistry” (International Journal of Molecular Sciences, 2025).

For data set [1], the target named is T1, AmpC (Escherichia coli, UniProt P00811). Kind of data set: LC-MS t-SIM detection of boronic acids incubated with AmpC. The arrangement: made in house. The following applies: 24 h, 37 °C. From the text:
Given that boronic acids act as transition-state inhibitors by binding the catalytic serine of β-lactamases through a reversible covalent bond, we aimed to determine whether the in situ click chemistry reaction products were quantitatively detected during LC–MS analysis. Although boronic acids are reversible binders, their fast on–slow off behaviour raised concerns that triazole product formation might be underestimated due to covalent adducts forming with the protein target. To investigate this, compound 10a, warhead 3, and compounds 8 and 9 were incubated with AmpC (1:1 or 1:5 protein:compound ratio), and their detection was monitored over 24 h (Figure 10). […] The percentage of boronic acids detected was estimated using peak area measurements in the LC–MS-targeted SIM mode, with quantification being performed using calibration curves. The experiments were conducted at 37 °C in a 95:5 sodium phosphate 50 mM pH 7.0:DMSO mixture.
Figure 10 The % of detection of 10a (grey box), 3 (yellow box), 8 (green box), and 9 (blue box) over the course of the 24 h using the t-SIM method. Each cpd was tested in presence of 20% mol of AmpC or stoichiometric amount of AmpC. Each box includes 4 columns corresponding to % boronic acid detected at a certain time point (0, 8, 16, and 24 h).

The target in data set [2] is T1, AmpC. The arrangement: made in house. The following applies: AmpC 20 mol%; warhead 3 + alkyne cluster; 37 °C, 24 h. As to the method:
Following the same conditions used for the multicomponent screening with KPC-2, the in situ click chemistry experiment was performed using AmpC as template.
(§1) Binary and multicomponent KTGS. […] The microtube was shaken at 300 rpm at 37 °C for 24 h. Reactions were transferred into a LC–MS vial and directly injected (10 µL) for liquid chromatography–mass spectrometry (LC–MS). Reactions were analysed with an Ultimate 3000 UHPLC coupled to a Q-exactive hybrid quadrupole-orbitrap mass spectrometer via an HESI-II heated electrospray ionisation source. The chromatographic separation was performed injecting a 10 µL sample volume on a Hypersil Gold C18 100 × 2.1 mm, 1.9 µm column (Thermo Fisher Scientific), kept at 30 °C eluting with 0.3 mL/min flow of ultrapure water (A) and methanol (B), both with 0.1% formic acid as mobile phase. […] A data-dependent mass spectrometric data acquisition strategy was used for full MS/DD-MS2. […] An inclusion list was eventually used to target the MS2 spectra acquisition of preferred ion species. Detection was based on calculated [M+H]^+ and [M−H]^− molecular ions with a 5 ppm accuracy tolerance for their respective ion chromatogram extraction. Peak retention time and area of detected target compounds was used for their detection and semi-quantitative evaluation in between reaction batches.
For controls (buffer and BSA), AmpC/KPC-2 is replaced with no enzyme (buffer volume 95 µL) and BSA (stock 100 µM, final concentration 5 µM, buffer volume 90 µL). Hits were identified in each cluster by mass and retention time and compared with both controls (buffer and BSA) and synthetically prepared triazoles obtained in mixtures.

Data set [3] has as its target T1, AmpC. Kind of data set: Binary in situ click chemistry between 3 and Al-12, with or without SM23. The arrangement: made in house. The following applies: binary 3 + Al-12; AmpC 20 mol%; SM23 1 mol%. As to the method: as §1
For controls (buffer and BSA), AmpC/KPC-2 is replaced with no enzyme (buffer volume 95 µL) and BSA (stock 100 µM, final concentration 5 µM, buffer volume 90 µL). […]

In data set [4] the target is T1, AmpC. Kind of data set: Competitive inhibition assay with nitrocefin, Ki. The class given is biochemical. The arrangement: made in house. The note with it: AmpC; values in nM. How it is done:
(§2) The β-lactamases used in the present study were from a Clinical Biochemistry Laboratory collection (Department of Biotechnological and Applied Clinical Sciences, University of L’Aquila, L’Aquila, Italy). […] The concentration of each enzyme was determined by a Bradford assay.
The plot v0/vi versus [I] yielded a straight line of slope KM/(KM + S) × Ki.
Figure 9 Compounds synthesised and their biological evaluation. AC = Amplification coefficient. […] Light blue indicates the compounds from the AmpC screening.

Data set [5] concerns the target OXA-48 (Klebsiella pneumoniae, UniProt Q6XEC0). Kind of data set: KM of reporter substrate (Hanes-Woolf). The class given is biochemical. The following applies: NaPi 50 mM pH 7.0.
Experimental: (§3) The β-lactamases used in the present study were from a Clinical Biochemistry Laboratory collection (Department of Biotechnological and Applied Clinical Sciences, University of L’Aquila, L’Aquila, Italy). All enzymes show a purity degree of higher than 95%. The concentration of each enzyme was determined by a Bradford assay.
Data set [6] concerns the target NDM-1 (Klebsiella pneumoniae, UniProt C7C422). The following applies: read-out: KM substrate, HEPES 20 mM pH 7.0 + 20 µM Zn. How it is done: as §2
Data set [7] addresses SHV-12 (Klebsiella pneumoniae, UniProt P0AD64, E235K/G234S/L31Q). The note with it: read-out: KM substrate, NaPi 50 mM pH 7.0.
Experimental: as §3
Data set [8] deals with T1, AmpC. The following applies: read-out: KM substrate; pH 7. How it is done: as §2
Data set [9] concerns the target KPC-53 (Klebsiella pneumoniae, UniProt Q9F663, DUP166-167/H272Y). The following applies: read-out: KM substrate, NaPi 50 mM pH 7.0.
Experimental: as §3
Data set [10] addresses ADC-7. The arrangement: method as in PMID 26102369, PMID 34970229, PMID 37358467, PMID 26729491. The note with it: ref [17],[19],[35],[36]; cited from earlier work.
Data set [11] deals with T2, KPC-2 (Klebsiella pneumoniae, UniProt Q9F663).
T2 construct: made in house
Also on record: method as in PMID 26102369, PMID 34970229, PMID 37358467, PMID 26729491. The note with it: ref [17],[19],[35],[36]; cited from earlier work.

Data set [12] is described as follows: Stability in phosphate buffer by 1H NMR. The format is physicochemical. An excerpt:
Previously, even a low level of affinity was reported to be sufficient for the target-templated reaction. Therefore, to enable in situ click chemistry within the β-lactamase’s binding pocket, a series of bifunctional “warheads” displaying two defined features were designed. Firstly, the presence of the boronic acid moiety serves as an anchor to the SBLs catalytic serine. Secondly, the azido functionalisation guarantees the clickable building block for generation of bioactive triazoles within the target active site. Thus, one 2-azido-1-acylamino-ethaneboronic acid and three azidomethyl-phenylboronic acids were synthesised and characterised (Figure 3). […] Herein, the amide side chain from cephalothin is well known to interact with various β-lactamases through van der Waals and H-bonding interactions and can aid the process of recognition within the target. […] Other warheads inspired by previously developed acyclic boronic acids were not considered in this manuscript and will be explored in future works.

Data set [13] concerns O=C(Cc1cccs1)N[C@@H]1C(=O)N2C(C(=O)O)=C(/C=C/c3ccc([N+](=O)[O-])cc3[N+](=O)[O-])CS[C@H]12. Kind of data set: KM of reporter substrate (Hanes-Woolf). The class given is biochemical. The following applies: pH 7.0.
Experimental: as §3

T1 sequence (P00811 20-377): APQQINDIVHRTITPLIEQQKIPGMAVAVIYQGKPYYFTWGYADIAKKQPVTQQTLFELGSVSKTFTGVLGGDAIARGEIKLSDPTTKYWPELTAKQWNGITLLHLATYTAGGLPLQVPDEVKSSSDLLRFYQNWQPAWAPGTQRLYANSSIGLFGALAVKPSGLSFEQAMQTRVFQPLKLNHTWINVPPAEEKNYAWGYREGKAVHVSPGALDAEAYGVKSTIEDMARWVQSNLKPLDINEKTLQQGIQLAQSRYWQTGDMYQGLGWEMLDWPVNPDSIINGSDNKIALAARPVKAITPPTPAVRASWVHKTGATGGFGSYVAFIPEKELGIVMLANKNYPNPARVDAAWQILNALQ

As for `O=S(=O)(NCc1cnnn1Cc1cccc(B(O)O)c1)C1CCCCC1` [10a], in data set [1] (20 mol% AmpC, sodium phosphate pH 7.0:DMSO 95:5), the “% boronic acid detected (remaining)” value amounted to 83%. In [1] (stoichiometric AmpC), the “boronic acid level detected” value is recorded as “remained stable”. Besides, in [2], the “AC (amplification coefficient)” value is listed as 5-6. Moreover, the “AC 10/10a” value in data set [3] is reported as 1-2. The Ki in data set [4] amounted to 140 nM.
As for `C[C@@H](O)[C@H]1C(=O)N2C(C(=O)O)=C(SCCN=CN)C[C@H]12` [IMI, Imipenem], in data set [5], the Km came out at 13 ± 1 µM.
As for `C[C@@H](O)[C@H]1C(=O)N2C(C(=O)O)=C(S[C@@H]3CN[C@H](C(=O)N(C)C)C3)[C@H](C)[C@H]12` [MPM, Meropenem], the Km in data set [6] turned out to be 80 ± 1 µM.
Regarding `O=C(Cc1cccs1)N[C@@H]1C(=O)N2C(C(=O)O)=C(/C=C/c3ccc([N+](=O)[O-])cc3[N+](=O)[O-])CS[C@H]12` [NCF, Nitrocefin], the Km in data set [7] was found to be 50 ± 3 µM; in data set [8], 118 ± 2 µM; in data set [9], 106 ± 2 µM.
On to `O=C(Cc1cccs1)NC(Cn1cc(C(=O)O)nn1)B(O)O` (centres unmarked) [S02030], for which the Ki in data set [10] was 45 nM. Besides, in data set [11], the 50% inhibitory concentration (IC50) is 80 nM.
Regarding `[N-]=[N+]=NCC(NC(=O)Cc1cccs1)B(O)O` (centres unmarked) [compound 1], in data set [12], the “stability in phosphate buffer” value is “partially degrades”.
Take ADC-25 (Acinetobacter baumannii): the Km in data set [13] was 120 ± 3 µM µM.

For orientation: Ki means a dissociation constant, usually derived from enzyme kinetics or from competition with a known ligand. Broadly, the IC50 is the concentration needed to halve the response being measured.
